From patent US20190291112A1, “DROPLET MICROFLUIDICS FOR DRUG SCREENING” (University of Macau, priority 2018, published 2019)
Blank lines part the entries; values can stand above or below the molecule they belong to.

Experiments:
[1] = system: Jurkat cells; assay: On chip drug screening assay (ethidium homodimer 1 staining); assay type: cell-based, human
Description: Jurkat E6.1 cells (ATCC® TIB-152™) and MDA-MB-231 cells (ATCC® HTB-26™) were used as models for suspended and adherent cancer cell lines respectively. Jurkat cell line was derived from human acute T cell leukemia, whereas MDA-MB-231 cell line was derived from human metastatic breast adenocarcinoma. On chip drug screening was performed using the PDMS-based microfluidic chip as described above. A 500 μL glass syringe (Hamilton, USA) and polytetrafluoroethylene (PTFE) tubings with appropriate bore (Cole Parmer, USA) was used to connect between the syringe pump (Harvard Apparatus PHD Ultra Syringe Pump, USA) and the microfluidic chip. Fluorinert® FC-40 (Sigma-Aldrich, USA) supplemented with 2% 008-Fluorosurfactant (Ran Biotechnologies, USA) was used as oil phase; relevant cell culture medium, supplemented with 1% (w/v) methyl cellulose (Sigma-Aldrich, USA) was used as aqueous phase. Cells treated with 0.1% dimethyl sulfoxide (DMSO) were used as negative control. […] Next, […], cell-drug mixtures were loaded into the tubing, consecutively segregated by oil phase at withdrawal rate of 200 μL/h by syringe pump. After loading all mixtures, the tubing was inserted into the microfluidic chip, which was back-flushed with oil phase at 500 μL/h by syringe pump. After that, the mixtures were infused at 25 μL/h by syringe pump. Finally, the inlet and outlet tubings were cut and sealed with Vaseline (Vaseline, USA). […] Brightfield and red fluorescence images (Ex. 531/40 nm, Em. 593/40 nm) were taken under 10× magnification (Life Technologies EVOS FL Imaging System, USA). […] For on chip assays, the number of cells was counted in brightfield and red fluorescence images from each well respectively.

[2] = system: MDA-MB-231 cells; assay: as above; assay type: cell-based, human; settings: for IC50: Homo sapiens
Description: (§1) Jurkat E6.1 cells (ATCC® TIB-152™) and MDA-MB-231 cells (ATCC® HTB-26™) were used as models for suspended and adherent cancer cell lines respectively. Jurkat cell line was derived from human acute T cell leukemia, whereas MDA-MB-231 cell line was derived from human metastatic breast adenocarcinoma.
On chip drug screening was performed using the PDMS-based microfluidic chip as described above. A 500 μL glass syringe (Hamilton, USA) and polytetrafluoroethylene (PTFE) tubings with appropriate bore (Cole Parmer, USA) was used to connect between the syringe pump (Harvard Apparatus PHD Ultra Syringe Pump, USA) and the microfluidic chip. Fluorinert® FC-40 (Sigma-Aldrich, USA) supplemented with 2% 008-Fluorosurfactant (Ran Biotechnologies, USA) was used as oil phase; relevant cell culture medium, supplemented with 1% (w/v) methyl cellulose (Sigma-Aldrich, USA) was used as aqueous phase. Cells treated with 0.1% dimethyl sulfoxide (DMSO) were used as negative control.
Briefly, cells at final concentrations of 1-2×10^6 cells per mL were aliquoted in 0.2 mL PCR tubes, then mixed with corresponding drugs and 2 μM ethidium homodimer 1 (Life Technologies, USA) by manual pipetting. Next, […], cell-drug mixtures were loaded into the tubing, consecutively segregated by oil phase at withdrawal rate of 200 μL/h by syringe pump. After loading all mixtures, the tubing was inserted into the microfluidic chip, which was back-flushed with oil phase at 500 μL/h by syringe pump. After that, the mixtures were infused at 25 μL/h by syringe pump. Finally, the inlet and outlet tubings were cut and sealed with Vaseline (Vaseline, USA). The chips were placed in 150 mm cell culture dish (Coming, USA) containing wet paper towels, and transferred to humidified incubator at 37° C. supplemented with 5% CO2 for 16-24 h incubation. Brightfield and red fluorescence images (Ex. 531/40 nm, Em. 593/40 nm) were taken under 10× magnification (Life Technologies EVOS FL Imaging System, USA).
For on chip assays, brightfield and red fluorescence images were initially processed by ImageJ v.1.50i, Cell counting was either performed manually or by Matlab v.R201.5a based on the workflow shown on FIG. 5B. Briefly, cells from brightfield and red fluorescence images were detected separately using a heuristic Hough Transformation model based on threshold implementation on circular diameter and pixel intensity. Next, each recognized cell was dissected into 10×10 pixels matrix for analysis of its pixel intensity. Subsequently, two layers of multi-radii analysis of pixel intensity around the center of each matrix distinguished signal from noise. Afterwards, cells were distinguished from noise based on the brightfield image, whereas cell viability was determined by signal intensity of corresponding red fluorescence image. Finally, positional information (defined by row: x, and column: y) and size (defined by radius: r) of discrete image matrix was used to classify each cell as “live” or “dead”. The total number of cells in each image corresponding to each droplet formation well on chip was summarized as a table in CSV format for calculation of cell viability. […]
For on chip assays, the number of cells was counted in brightfield and red fluorescence images from each well respectively. Cell viability was calculated as follows: […]
where Total cells and Dead cells referred to the total number of cells counted from brightfield and red fluorescence images, respectively. […]

[3] = system: MDA-MB-231 cells; assay: 96-well microtiter plate drug screening assay (Alamar Blue); assay type: cell-based, human; settings: 96-well plate
Description: as §1
(§2) Microtiter plate drug screening assays were carried out on 96-well clear round flat-bottom plates (Corning, USA) or 384-well white square flat-bottom plates (Corning, USA).
(§3) First, 5.0×10^5 or 1.0×10^5 cells were seeded per well for 96-well and 384-well plates respectively. Drugs were diluted with Dulbecco's phosphate-buffered saline (DPBS) (Life Technologies, USA), and subsequently added to achieve final drug concentrations as indicated on the graphs. Afterwards, the plates were transferred to humidified incubator at 37° C. supplemented with 5% CO2 for 16-24 h incubation. Finally, Alamar Blue assay was used to measure cell viability. Fluorescence intensity (Ex. 560 nm, Em. 590 nm) using auto-cutoff was measured from bottom on plate reader (Molecular Devices SpectraMax MS Plate Reader, USA). Cells treated with 0.1% dimethyl sulfoxide (DMSO) were used as negative control, while no cells were added to blank control. All experiments were performed in triplicate for 96-well plates and in quadruplicates for 384-well relates.
(§4) For microliter plate assays, average relative fluorescence signal measured by plate reader from 6 reads of each well was used as raw data point. Cell viability was calculated as follows: […]
(§5) where Sample represented raw data points of each sample well, whereas DMSO control and Blank represented average raw data points of all DMSO control and Blank wells, respectively.

[4] = system: Jurkat cells; assay: as above; assay type: cell-based, human; settings: 96-well plate
Description: as §1, §2, §3, §4, §5

[5] = system: MDA-MB-231 cells; assay: 384-well microtiter plate drug screening assay (Alamar Blue); assay type: cell-based, human; settings: 384-well plate
Description: as §1, §2, §3, §4, §5

[6] = system: Jurkat cells; assay: as above; assay type: cell-based, human; settings: 384-well plate
Description: as §1, §2, §3, §4, §5

[7] = system: cancer cell lines; assay: Carrier fluid and surfactant optimization, cell viability on chip; assay type: cell-based; settings: surfactant, all tested concentrations
Excerpt: Firstly, we optimized the carrier fluid or oil phase to assure cell viability on chip for a minimum of 7 days for cancer cell lines. Commercial oils including Fluorinert® series oils, e.g. fluorocarbon oils, silicone oil, and mineral oil in combination with different surfactants (either mixed with oil phase or aqueous phase) at various concentrations have been tested. Among these, Fluorinert® FC-40 supplemented with 2% 008-Fluorosurfactant by Ran Biotechnologies provided optimal properties in terms of viscosity, volatility and droplet stability. Fluorosurfactant was added to prevent droplets from coalescence and cross-contamination of droplet contents when they touched each other (FIG. 6A). In addition, fluorosurfactant-emulsified droplets prevented fluorescent dye from adsorbing to the hydrophobic PDMS walls of the channel (FIG. 6B) or migrating into the oil phase (FIGS. 6C and 6D), in order to maintain constant drug concentrations in droplets. […] Droplets containing red fluorescent dye were incubated at 37° C. for 15 h, but no trace of fluorescent dye was observed along the PDMS walls as the droplet shrank due to evaporation. […]

[8] = system: cells; assay: Time-lapse imaging of cells incubated with viability indicator dye; assay type: cell-based; settings: 2 μM, within 48 h post-treatment
Description: Thirdly, different cell viability indicator dyes were tested for staining efficiency, indicator reliability and cytotoxicity on chip. Since the sample fluid was premixed before loading to the chip, we tested for different cell viability indicator dyes and variant concentrations to ensure that the indicator dye had no impact on cell viability, at least within the time frame of the drug susceptibility test. Eventually, ethidium homodimer 1 staining was adopted to indicate dead cells. Ethidium homodimer 1 is a cell-impermeable, high affinity nucleic acid stain emitting strong red fluorescence after binding to DNA. It gave strong red fluorescence after cells were treated with drug but not DMSO) (FIG. 12).

IC50 ([1]; Homo sapiens, 16-24 h): 1 to 2.2 µM
IC50 [2]: 5.5 µM
IC50 ([3]; Homo sapiens): 0.6 µM
IC50 ([4]; Homo sapiens, 16-24 h): 1 to 2.2 µM
IC50 ([5]; Homo sapiens): 0.5 µM
IC50 ([6]; Homo sapiens, 16-24 h): 1 to 2.2 µM
Molecule: COc1cccc2c1C(=O)c1c(O)c3c(c(O)c1C2=O)C[C@@](O)(C(=O)CO)C[C@@H]3O[C@H]1C[C@H](N)[C@@H](O)[C@H](C)O1 [epirubicin]
cell viability leveled off ([2]; after reaching IC50): approximately 50%

Molecule: CCCCCCCCCCCCOS(=O)(=O)[O-].[Na+] [sodium dodecyl sulfate]
effect on cell viability [7]: compromised cell viability

IC50 [2]: 33.3 µM
Molecule: O=C(CCCCCCC(=O)Nc1ccccc1)NO [vorinostat]
cell viability plateau ([1]; all doses tested): above 50%
cell viability plateau [3]: above 50%
cell viability plateau ([4]; all doses tested): above 50%
cell viability plateau [5]: above 50%
cell viability plateau ([6]; all doses tested): above 50%

Molecule: Triton X-100
effect on cell viability [7]: compromised cell viability

Molecule: ethidium homodimer 1
effect on cell death and proliferation [8]: did not affect cell death and proliferation
